Data taken from patent US9700565B2, “Method of treating mixed lineage leukemia gene-rearranged acute lymphoblastic leukemias” (Dana-Farber Cancer Institute, Inc., priority 2003, dated 2017).

Tests used:
[1] = test system: RS4; 11; experiment: In vivo xenograft model of MLL rearranged ALL with bioluminescent imaging, RS4; 11 cells; conditions: SCID-beige mice injected with RS4; 11 cells (does not over-express FLT3); 150 mg/kg once daily via gavage, 5 days per week
Procedure: (§1) To determine if PKC412 is effective against an in vivo model of MLL rearranged ALL, a xenograft model system in which leukemia burden can be quantitated with in vivo bioluminescent imaging is established. SEMK2-M1 and RS4; 11 (ATCC Number: CRL-1873) cell lines are engineered to express firefly luciferase fused to neomycin phosphotransferase by retroviral transduction. One million leukemia cells are then injected into the tail vein of SCID-beige mice. Within 1 week, the bioluminescent signal is detectable in a location consistent with the femur. Pathologic analysis of similarly xenografted mice confirm that the leukemia cells are initially found in the mouse bone marrow present in the femoral head. The leukemia subsequently progresses to replace the normal bone marrow and involve other organs, thus mimicking the progression of human leukemia. Once the leukemia had engrafted, as can be determined by the presence of a bioluminescent signal, a cohort of mice is treated with either 150 mg/kg PKC412 or vehicle once daily via gavage for 5 days per week. Serial imaging of the two cohorts is then performed to quantitate disease burden. […] Thus, oral administration of PKC412 is effective in vivo against human lymphoblastic leukemia with an MLL rearranged ALL arrangement and activated FLT3.

[2] = test system: SEMK2-M1; experiment: In vivo xenograft model of MLL rearranged ALL with bioluminescent imaging, SEMK2-M1 cells; design: species or system SCID-beige mice; conditions: 150 mg/kg once daily via gavage, 5 days per week
Procedure: as §1

In the case of `CO[C@@H]1[C@H](N(C)C(=O)c2ccccc2)C[C@H]2O[C@]1(C)n1c3ccccc3c3c4c(c5c6ccccc6n2c5c31)C(=O)NC4` [PKC412, N-benzoyl-staurosporine], the “anti-tumor effect on leukemia (bioluminescent imaging)” value [1] is reported as “no effect”, the “quantification of total leukemic burden (bioluminescent imaging)” value ([2]; SCID-beige mice engrafted with SEMK2-M1 cells (over-expresses FLT3), after 2 weeks of therapy) is reported as “anti-tumor efficacy” and the “tumor burden by pathological analysis at completion of the study” value ([2]; SEMK2-M1 injected mice, compared to control mice) is reported as “vast differences in tumor burden”.
